These results are taken from ChEMBL document CHEMBL1153880, “Synthesis and adrenolytic activity of 1-(1H-indol-4-yloxy)-3-{[2-(2-methoxyphenoxy)ethyl]amino}propan-2-ol and its enantiomers. Part 1” (Eur J Med Chem, 2009).

The test system of series [1] is Rattus norvegicus. Put plainly: Effect on heart rate in anaesthetized Wistar rat assessed as number of beats per minute at 1 mg/kg, iv after 15 mins by electrocardiography. In kind it is functional.
Series [2] has as its target T1, Adrenergic receptor alpha-2 (Rattus norvegicus, UniProt P22086+P19328+P22909).
T1 sequence (P22086 whole entry): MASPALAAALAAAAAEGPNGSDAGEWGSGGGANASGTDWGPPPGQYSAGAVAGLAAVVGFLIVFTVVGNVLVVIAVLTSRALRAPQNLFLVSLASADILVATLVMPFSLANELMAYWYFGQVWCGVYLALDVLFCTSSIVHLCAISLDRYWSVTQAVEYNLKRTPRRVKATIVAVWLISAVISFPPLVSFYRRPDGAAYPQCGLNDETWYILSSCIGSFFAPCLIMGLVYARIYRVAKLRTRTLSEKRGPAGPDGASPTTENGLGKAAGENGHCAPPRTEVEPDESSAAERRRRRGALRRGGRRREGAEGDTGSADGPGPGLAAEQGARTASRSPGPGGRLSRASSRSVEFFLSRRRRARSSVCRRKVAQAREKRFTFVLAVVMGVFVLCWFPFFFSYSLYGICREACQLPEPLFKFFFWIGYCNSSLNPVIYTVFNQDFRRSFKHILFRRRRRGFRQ
T1 sequence (P19328 whole entry): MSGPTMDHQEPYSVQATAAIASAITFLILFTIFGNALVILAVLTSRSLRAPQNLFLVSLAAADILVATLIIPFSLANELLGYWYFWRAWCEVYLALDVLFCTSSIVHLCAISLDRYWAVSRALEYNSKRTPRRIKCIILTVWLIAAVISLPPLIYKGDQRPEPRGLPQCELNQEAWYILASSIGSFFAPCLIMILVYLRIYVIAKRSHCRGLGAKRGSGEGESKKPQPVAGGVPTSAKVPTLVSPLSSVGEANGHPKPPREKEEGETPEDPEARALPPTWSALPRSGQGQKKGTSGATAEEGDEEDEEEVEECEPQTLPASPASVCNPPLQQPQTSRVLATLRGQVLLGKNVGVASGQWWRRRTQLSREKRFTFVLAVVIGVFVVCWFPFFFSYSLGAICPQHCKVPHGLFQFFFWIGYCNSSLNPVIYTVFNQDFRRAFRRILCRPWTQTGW
T1 sequence (P22909 whole entry): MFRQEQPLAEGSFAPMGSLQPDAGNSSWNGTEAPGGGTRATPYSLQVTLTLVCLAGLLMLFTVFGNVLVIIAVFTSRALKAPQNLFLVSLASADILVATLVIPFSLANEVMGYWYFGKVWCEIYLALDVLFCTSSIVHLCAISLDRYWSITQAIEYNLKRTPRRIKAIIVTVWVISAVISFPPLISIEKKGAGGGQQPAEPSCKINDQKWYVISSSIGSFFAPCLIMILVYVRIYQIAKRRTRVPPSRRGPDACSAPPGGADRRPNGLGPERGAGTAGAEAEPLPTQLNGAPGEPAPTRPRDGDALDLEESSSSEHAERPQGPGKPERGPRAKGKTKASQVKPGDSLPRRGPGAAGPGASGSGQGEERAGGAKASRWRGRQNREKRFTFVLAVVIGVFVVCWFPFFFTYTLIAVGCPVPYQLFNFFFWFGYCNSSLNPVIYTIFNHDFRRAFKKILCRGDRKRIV
Briefly: Displacement of [3H]clonidine from alpha2 adrenergic receptor in rat cerebral cortex by liquid scintillation method. In kind it is tissue-based. A general note: In a radioligand displacement assay an active substance lowers the binding of a labelled ligand.

In series [3] the test system is Rattus norvegicus. Briefly: Effect on electrocardiogram in anaesthetized Wistar rat assessed as change in QRS interval at 1 mg/kg, iv after 1 min by electrocardiography. In kind it is functional.
Series [4] relates to Rattus norvegicus. Put plainly: Effect on electrocardiogram in anaesthetized Wistar rat assessed as change in P-Q-interval at 1 mg/kg, iv after 15 mins by electrocardiography. In kind it is functional.
Series [5] deals with Rattus norvegicus. Briefly: Effect on electrocardiogram in anaesthetized Wistar rat assessed as change in QRS interval at 1 mg/kg, iv after 5 mins by electrocardiography. In kind it is functional.
Series [6] deals with Rattus norvegicus. Put plainly: Effect on electrocardiogram in anaesthetized Wistar rat assessed as change in Q-T interval at 1 mg/kg, iv after 5 mins by electrocardiography. In kind it is functional.
In series [7] the test system is Rattus norvegicus. Put plainly: Effect on electrocardiogram in anaesthetized Wistar rat assessed as change in P-Q interval at 1 mg/kg, iv after 1 min by electrocardiography. The format is functional.
In series [8] the test system is Rattus norvegicus. Briefly: Effect on electrocardiogram in anaesthetized Wistar rat assessed as change in P-Q-interval at 1 mg/kg, iv after 5 mins by electrocardiography. In kind it is functional.
The subject of series [9] is Rattus norvegicus. Put plainly: Antiarrhythmic activity against adrenaline-induced arrhythmia in po dosed anaesthetized Wistar rat assessed as inhibition of premature ventricular beats pretreated 60 mins prior to adrenaline challenge. In kind it is functional. The following applies: Heart.
Series [10] deals with Rattus norvegicus. Briefly: Effect on heart rate in anaesthetized Wistar rat assessed as number of beats per minute at 1 mg/kg, iv after 1 min by electrocardiography. The format is functional.
The nature of series [11]: Acute toxicity in iv dosed anaesthetized Wistar rat. The format is organism-based. The note with it: in vivo.
The test system of series [12] is Rattus norvegicus. Briefly: Hypotensive activity in anaesthetized normotensive Wistar rat assessed as reduction in methoxamine-induced pressor response at 1 mg/kg, iv after 5 mins. The format is functional, organism-based. Further details: dose 1 mg/kg.
Series [13] concerns Rattus norvegicus. Put plainly: Effect on electrocardiogram in anaesthetized Wistar rat assessed as change in Q-T interval at 1 mg/kg, iv after 15 mins by electrocardiography. In kind it is functional.
Series [14] relates to Rattus norvegicus. Briefly: Hypotensive activity in anaesthetized normotensive Wistar rat assessed as reduction in epinephrine-induced pressor response at 1 mg/kg, iv after 5 mins. The format is functional, organism-based. Details: dose 1 mg/kg.
Series [15] concerns Rattus norvegicus. Put plainly: Effect on electrocardiogram in anaesthetized Wistar rat assessed as change in Q-T interval at 1 mg/kg, iv after 1 min by electrocardiography. In kind it is functional.

The source made the active and inactive calls. No cut-off for these calls is given here.

As usually defined, the Ki is a measure of affinity in units of concentration, obtained from inhibition or displacement. By ED50 is commonly meant the dose that gives a 50% effect, or the effect in half of the subjects. Broadly, the LD50 is the dose expected to kill half of the subjects tested. The low end stands for a more toxic substance, the high end for a less toxic substance.

Regarding `COc1ccccc1OCCNC[C@@H](O)COc1cccc2[nH]ccc12`, the Activity in the series on Rattus norvegicus [1] stood at 298 min⁻¹; in the series with Rattus norvegicus [3], 22.3 ms; in the series on Rattus norvegicus [4], 51.7 ms; in the series on Rattus norvegicus [5], 21.7 ms; with Rattus norvegicus [6], 66 ms; with Rattus norvegicus [7], 53.7 ms. The Activity came out at 50.7 ms in the series with Rattus norvegicus [8], 307.8 min⁻¹ with Rattus norvegicus [10], 62.8 ms in the series with Rattus norvegicus [13] and 63 ms with Rattus norvegicus [15]. The Ki in series [2] is given as 467.3 nM. Further, in the series with Rattus norvegicus [9], the ED50 turned out to be 1.28 mg/kg. The compound further returned an LD50 in series [11] of 20.4 mg/kg. In addition, the result in the series on Rattus norvegicus [12] and in the series on Rattus norvegicus [14] was Active.

Take `COc1ccccc1OCCNC[C@H](O)COc1cccc2[nH]ccc12`: the Activity with Rattus norvegicus [1] amounted to 304.2 min⁻¹; in the series on Rattus norvegicus [3], 24.3 ms; in the series with Rattus norvegicus [4], 48 ms; with Rattus norvegicus [5], 24.3 ms; with Rattus norvegicus [6] it was 76.3 ms; in the series on Rattus norvegicus [7] it was 52.3 ms. The Activity in the series on Rattus norvegicus [8] is 49.7 ms; in the series on Rattus norvegicus [10] it was 297.2 min⁻¹; in the series with Rattus norvegicus [13] it was 72 ms; with Rattus norvegicus [15], 72.3 ms. Further, the Ki in [2] worked out at 365.5 nM. The 50% effective dose (ED50) with Rattus norvegicus [9] was 0.61 mg/kg. Further, in series [11], the LD50 was 36.2 mg/kg. Moreover, the outcome in the series with Rattus norvegicus [12] and with Rattus norvegicus [14] was Active.

For `COc1ccccc1OCCNCC(O)COc1cccc2[nH]ccc12` (racemic), the Activity worked out at 287.3 min⁻¹ in the series on Rattus norvegicus [1]; 28.4 ms in the series with Rattus norvegicus [3]; 46.2 ms in the series with Rattus norvegicus [4]; 24.9 ms in the series with Rattus norvegicus [5]; 69 ms in the series on Rattus norvegicus [6]; 47.2 ms in the series with Rattus norvegicus [7]. The Activity in the series on Rattus norvegicus [8] was 48.1 ms; in the series with Rattus norvegicus [10], 298.7 min⁻¹; in the series on Rattus norvegicus [13], 72.8 ms; in the series with Rattus norvegicus [15], 69.2 ms. In series [2], this compound came in with a Ki of 1.4 nM. The 50% effective dose (ED50) in the series with Rattus norvegicus [9] came to 0.44 mg/kg. The compound also registered an LD50 in [11] of 20 mg/kg. The outcome in the series on Rattus norvegicus [12] and in the series with Rattus norvegicus [14] was Active.
